Reference: patent US20230158025A1 (UNIVERSITY OF UTAH RESEARCH FOUNDATION, priority 2020, published 2023)
Read-outs that look alike come from different tables or passages of the source.

Columns and labels:
recombinant human GALK1 = recombinant human GALK1 (Homo sapiens, UniProt P51570); test: hGALK1 biochemical activity assay (Kinase-Glo Plus, ATP depletion)
Summary of the method: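 Turnover is measured as ATP depletion by Kinase-Glo Plus luminescence after a 1 h room-temperature reaction. Compounds span 11 concentrations, 57.4 μM–0.97 nM, in final 20 mM HEPES pH 8.0 with 5 mM MgCl2. The substrate solution held 35 μM ATP; the added solution held 5 nM human or mouse GALK1 and 100 μM galactose.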

recombinant mouse GALK1 = recombinant mouse GALK1 (Mus musculus, UniProt Q9R0N0); test: mGALK1 biochemical activity assay (Kinase-Glo Plus, ATP depletion)
Summary of the method: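 Recombinant GALK1 (5 nM) with 100 μM galactose; GALK1 turnover read as ATP depletion by Kinase-Glo Plus luminescence. Reaction ran 1 h at room temperature before detection reagent was added.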

[1] = aqueous kinetic solubility
[2] = rat microsomal stability (RLM); settings: microsomal half-life
[3] = Tables 2-15, 35 μM ATP, 100 μM galactose, 1 h, bracketed figure after some values (e.g. −1.2) is undefined and not reported, read-out: hGALK IC50
[4] = recombinant human GALK1, Kinase-Glo Plus ATP depletion, read-out: hGALK
[5] = Tables 2-15, 35 μM ATP, 100 μM galactose, 1 h, bracketed figure after some values is undefined and not reported, read-out: mGALK IC50
[6] = recombinant mouse GALK1, Kinase-Glo Plus ATP depletion, read-out: mGALK
[7] = recombinant mouse GALK1, Kinase-Glo Plus ATP depletion
[8] = recombinant human GALK1, Kinase-Glo Plus ATP depletion

Chain of recombinant human GALK1 (P51570 whole entry): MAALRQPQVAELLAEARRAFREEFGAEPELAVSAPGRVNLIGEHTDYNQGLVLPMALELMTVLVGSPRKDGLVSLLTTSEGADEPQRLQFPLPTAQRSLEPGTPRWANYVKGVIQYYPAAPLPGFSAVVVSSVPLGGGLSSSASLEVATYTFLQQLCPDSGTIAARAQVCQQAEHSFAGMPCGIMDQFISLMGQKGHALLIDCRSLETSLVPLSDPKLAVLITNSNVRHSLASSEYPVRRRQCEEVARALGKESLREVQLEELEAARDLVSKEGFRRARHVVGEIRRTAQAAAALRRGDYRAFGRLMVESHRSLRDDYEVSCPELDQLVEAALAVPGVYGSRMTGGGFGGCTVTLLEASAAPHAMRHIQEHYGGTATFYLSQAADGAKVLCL
Chain of recombinant mouse GALK1 (Q9R0N0 whole entry): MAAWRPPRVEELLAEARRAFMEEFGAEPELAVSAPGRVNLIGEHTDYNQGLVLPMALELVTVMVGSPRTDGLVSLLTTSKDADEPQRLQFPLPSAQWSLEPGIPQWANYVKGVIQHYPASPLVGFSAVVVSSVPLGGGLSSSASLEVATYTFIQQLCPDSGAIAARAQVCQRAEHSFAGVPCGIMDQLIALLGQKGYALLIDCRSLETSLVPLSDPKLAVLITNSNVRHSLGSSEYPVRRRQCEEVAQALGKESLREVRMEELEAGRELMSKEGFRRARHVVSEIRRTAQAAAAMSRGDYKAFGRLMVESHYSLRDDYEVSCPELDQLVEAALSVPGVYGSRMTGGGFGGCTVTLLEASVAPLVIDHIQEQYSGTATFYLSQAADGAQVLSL

## COc1ccc([C@H]2N=C(Nc3nc4cccc(N)c4o3)NC(C)=C2C(=O)Nc2cc(C(=O)O)ccn2)c(Cl)c1 [Compound 86, (S)-2-(2-((7-aminobenzo[d]oxazol-2-yl)amino)-4-(2-chloro-4-methoxyphenyl)-6-methyl-1,4-dihydropyrimidine-5-carboxamido)isonicotinic acid]
Recombinant human GALK1; [3]
  IC50: 5.44 µM
Recombinant human GALK1; [4]
  IC50: 5.44 µM
Recombinant mouse GALK1; [5]
  IC50: 34.3 µM
Recombinant mouse GALK1; [6]
  IC50: 34.3 µM
PAMPA permeability
  Perm. (1 × 10^−6 cm/sec): <1 1 × 10^−6 cm/sec
[1]
  Sol.: >81 µg/mL
[2]
  Metab. Stabil. (m): >30 m

## COc1ccc([C@@H]2N=C(Nc3nc4cccc(N)c4o3)NC(C)=C2C(=O)Nc2cc(C(=O)O)ccn2)c(Cl)c1 [Compound 87, (R)-2-(2-((7-aminobenzo[d]oxazol-2-yl)amino)-4-(2-chloro-4-methoxyphenyl)-6-methyl-1,4-dihydropyrimidine-5-carboxamido)isonicotinic acid]
Recombinant human GALK1; [3]
  IC50: 0.15 µM
Recombinant human GALK1; [4]
  IC50: 0.15 µM
Recombinant mouse GALK1; [5]
  IC50: 2.43 µM
Recombinant mouse GALK1; [6]
  IC50: 2.43 µM
PAMPA permeability
  Perm. (1 × 10^−6 cm/sec): <1 1 × 10^−6 cm/sec
[1]
  Sol.: >81 µg/mL
[2]
  Metab. Stabil. (m): >30 m

## CC1=C(C(=O)Nc2cc(-c3nn[nH]n3)ccn2)C(c2ccc(C)cc2Cl)N=C(Nc2nc3ccc(F)cc3o2)N1 (centres unmarked) [Compound 88, N-(4-(2H-tetrazol-5-yl)pyridin-2-yl)-4-(2-chloro-4-methylphenyl)-2-((6-fluorobenzo[d]oxazol-2-yl)amino)-6-methyl-1,4-dihydropyrimidine-5-carboxamide]
Recombinant human GALK1; [4]
  IC50: 1.37 µM
Recombinant mouse GALK1; [6]
  IC50: 9.68 µM
PAMPA permeability
  Perm. (1 × 10^−6 cm/sec): <1 1 × 10^−6 cm/sec
[1]
  Sol.: <1 µg/mL
[2]
  Metab. Stabil. (m): >30 m

## CC1=C(C(=O)Nc2cc(N(C)C)ccn2)C(c2ccc(C)cc2Cl)N=C(Nc2nc3cccc(N)c3o2)N1 (centres unmarked) [Compound 89, 2-((7-aminobenzo[d]oxazol-2-yl)amino)-4-(2-chloro-4-methylphenyl)-N-(4-(dimethylamino)pyridin-2-yl)-6-methyl-1,4-dihydropyrimidine-5-carboxamide]
Recombinant human GALK1; [3]
  IC50: 3.43 µM
Recombinant human GALK1; [4]
  IC50: 3.34 µM
Recombinant mouse GALK1; [5]
  IC50: 15.3 µM
Recombinant mouse GALK1; [6]
  IC50: 15.3 µM
PAMPA permeability
  Perm. (1 × 10^−6 cm/sec): 179.3 1 × 10^−6 cm/sec
[1]
  Sol.: 4.6 µg/mL
[2]
  Metab. Stabil. (m): 11.7017 m

## CC1=C(C(=O)Nc2cc(N(C)C)ccn2)C(c2ccc(C)cc2Cl)N=C(Nc2nc3ccc(F)cc3o2)N1 (centres unmarked) [Compound 90, 4-(2-chloro-4-methylphenyl)-N-(4-(dimethylamino)pyridin-2-yl)-2-((6-fluorobenzo[d]oxazol-2-yl)amino)-6-methyl-1,4-dihydropyrimidine-5-carboxamide]
Recombinant human GALK1; [3]
  IC50: 4.32 µM
Recombinant human GALK1; [4]
  IC50: 4.32 µM
Recombinant mouse GALK1; [5]
  IC50: 6.85 µM
Recombinant mouse GALK1; [6]
  IC50: 6.85 µM
PAMPA permeability
  Perm. (1 × 10^−6 cm/sec): 264.3 1 × 10^−6 cm/sec
[1]
  Sol.: 6.2 µg/mL
[2]
  Metab. Stabil. (m): 17.58 m

## CC1=C(C(=O)Nc2cc(B(O)O)ccn2)C(c2ccc(C)cc2Cl)N=C(Nc2nc3ccc(F)cc3o2)N1 (centres unmarked) [Compound 92, (2-(4-(2-chloro-4-methylphenyl)-2-((6-fluorobenzo[d]oxazol-2-yl)amino)-6-methyl-1,4-dihydropyrimidine-5-carboxamido)pyridin-4-yl)boronic acid]
Recombinant human GALK1; [3]
  IC50: 1.93 µM
Recombinant human GALK1; [4]
  IC50: 1.93 µM
Recombinant mouse GALK1; [5]
  IC50: 10.9 µM
Recombinant mouse GALK1; [6]
  IC50: 10.9 µM
PAMPA permeability
  Perm. (1 × 10^−6 cm/sec): <3.2 1 × 10^−6 cm/sec
[1]
  Sol.: <1 µg/mL
[2]
  Metab. Stabil. (m): 14.13 m

## COc1ccc2nc(NC3=NC(c4ccccc4Cl)C(C(=O)Nc4nnc(-c5cccnc5)s4)=C(C)N3)oc2c1 (centres unmarked) [Compound 93, 4-(2-chlorophenyl)-2-((6-methoxybenzo[d]oxazol-2-yl)amino)-6-methyl-N-(5-(pyridin-3-yl)-1,3,4-thiadiazol-2-yl)-1,4-dihydropyrimidine-5-carboxamide]
Recombinant human GALK1; [4]
  IC50: 9.68 µM
Recombinant mouse GALK1; [6]
  IC50: 21.7 µM
PAMPA permeability
  Perm. (1 × 10^−6 cm/sec): <4.4 1 × 10^−6 cm/sec
[1]
  Sol.: <1 µg/mL
[2]
  Metab. Stabil. (m): >30 m

## CC1=C(C(=O)Nc2nnc(-c3cccnc3)s2)C(c2ccccc2Cl)N=C(Nc2nc3ccc(Cl)cc3o2)N1 (centres unmarked) [Compound 94, 2-((6-chlorobenzo[d]oxazol-2-yl)amino)-4-(2-chlorophenyl)-6-methyl-N-(5-(pyridin-3-yl)-1,3,4-thiadiazol-2-yl)-1,4-dihydropyrimidine-5-carboxamide]
Recombinant human GALK1; [4]
  IC50: 27.3 µM
Recombinant mouse GALK1; [7]
  mGALK (μM): in- active
PAMPA permeability
  Perm. (1 × 10^−6 cm/sec): <10.3 1 × 10^−6 cm/sec
[1]
  Sol.: <1 µg/mL
[2]
  Metab. Stabil. (m): >30 m

## COc1ccc2oc(NC3=NC(c4ccccc4Cl)C(C(=O)Nc4nnc(-c5cccnc5)s4)=C(C)N3)nc2c1 (centres unmarked) [Compound 95, 4-(2-chlorophenyl)-2-((5-methoxybenzo[d]oxazol-2-yl)amino)-6-methyl-N-(5-(pyridin-3-yl)-1,3,4-thiadiazol-2-yl)-1,4-dihydropyrimidine-5-carboxamide]
Recombinant human GALK1; [8]
  hGALK (μM): in- active
Recombinant mouse GALK1; [7]
  mGALK (μM): in- active
PAMPA permeability
  Perm. (1 × 10^−6 cm/sec): <19.1 1 × 10^−6 cm/sec
[1]
  Sol.: <1 µg/mL
[2]
  Metab. Stabil. (m): >30 m

## CC1=C(C(=O)Nc2nnc(-c3cccnc3)s2)C(c2ccccc2Cl)N=C(Nc2nc3cc(C)ccc3o2)N1 (centres unmarked) [Compound 96, 4-(2-chlorophenyl)-2-((5-methylbenzo[d]oxazol-2-yl)amino)-6-methyl-N-(5-(pyridin-3-yl)-1,3,4-thiadiazol-2-yl)-1,4-dihydropyrimidine-5-carboxamide]
Recombinant human GALK1; [4]
  IC50: 4.85 µM
Recombinant mouse GALK1; [6]
  IC50: 10.9 µM
PAMPA permeability
  Perm. (1 × 10^−6 cm/sec): <1.5 1 × 10^−6 cm/sec
[1]
  Sol.: <1 µg/mL
[2]
  Metab. Stabil. (m): >30 m

## CC1=C(C(=O)Nc2nnc(-c3cccnc3)s2)C(c2ccccc2Cl)N=C(Nc2nc3cc(F)ccc3o2)N1 (centres unmarked) [Compound 97, 4-(2-chlorophenyl)-2-((5-fluorobenzo[d]oxazol-2-yl)amino)-6-methyl-N-(5-(pyridin-3-yl)-1,3,4-thiadiazol-2-yl)-1,4-dihydropyrimidine-5-carboxamide]
Recombinant human GALK1; [4]
  IC50: 5.44 µM
Recombinant mouse GALK1; [6]
  IC50: 19.3 µM
PAMPA permeability
  Perm. (1 × 10^−6 cm/sec): <1.5 1 × 10^−6 cm/sec
[1]
  Sol.: <1 µg/mL
[2]
  Metab. Stabil. (m): >30 m

## CC1=C(C(=O)Nc2nnc(-c3cccnc3)s2)C(c2ccccc2Cl)N=C(Nc2nc3cc(Cl)ccc3o2)N1 (centres unmarked) [Compound 98]
Recombinant human GALK1; [4]
  IC50: 6.11 µM
Recombinant mouse GALK1; [6]
  IC50: 19.3 µM
PAMPA permeability
  Perm. (1 × 10^−6 cm/sec): <3.4 1 × 10^−6 cm/sec
[1]
  Sol.: <1 µg/mL
[2]
  Metab. Stabil. (m): >30 m

## CC1=C(C(=O)Nc2nnc(-c3cccnc3)s2)C(c2ccccc2Cl)N=C(Nc2nc3ccc(C)cc3o2)N1 (centres unmarked) [Compound 99, 4-(2-chlorophenyl)-2-((6-methylbenzo[d]oxazol-2-yl)amino)-6-methyl-N-(5-(pyridin-3-yl)-1,3,4-thiadiazol-2-yl)-1,4-dihydropyrimidine-5-carboxamide]
Recombinant human GALK1; [8]
  hGALK (μM): in- active
Recombinant mouse GALK1; [7]
  mGALK (μM): in- active
PAMPA permeability
  Perm. (1 × 10^−6 cm/sec): <2.9 1 × 10^−6 cm/sec
[1]
  Sol.: <1 µg/mL
[2]
  Metab. Stabil. (m): >30 m

## CC1=C(C(=O)Nc2nnc(-c3cccnc3)s2)C(c2ccccc2Cl)N=C(Nc2nc3ccc(F)cc3o2)N1 (centres unmarked) [Compound 100, 4-(2-chlorophenyl)-2-((6-fluorobenzo[d]oxazol-2-yl)amino)-6-methyl-N-(5-(pyridin-3-yl)-1,3,4-thiadiazol-2-yl)-1,4-dihydropyrimidine-5-carboxamide]
Recombinant human GALK1; [4]
  IC50: 17.2 µM
Recombinant mouse GALK1; [6]
  IC50: 38.5 µM
PAMPA permeability
  Perm. (1 × 10^−6 cm/sec): <9.9 1 × 10^−6 cm/sec
[1]
  Sol.: <1 µg/mL
[2]
  Metab. Stabil. (m): >30 m

## CC1=C(C(=O)Nc2cc(C(=O)O)ccn2)C(c2ccc(C)cc2Cl)N=C(Nc2nc3ncccc3o2)N1 (centres unmarked) [Compound 102, 2-(4-(2-chloro-4-methylphenyl)-6-methyl-2-(oxazolo[4,5-b]pyridin-2-ylamino)-1,4-dihydropyrimidine-5-carboxamido)isonicotinic acid]
Recombinant human GALK1; [3]
  IC50: 4.85 µM
Recombinant human GALK1; [4]
  IC50: 4.85 µM
Recombinant mouse GALK1; [5]
  IC50: 19.3 µM
Recombinant mouse GALK1; [6]
  IC50: 19.3 µM
PAMPA permeability
  Perm. (1 × 10^−6 cm/sec): <1 1 × 10^−6 cm/sec
[1]
  Sol.: >51 µg/mL
[2]
  Metab. Stabil. (m): >30 m

## CC1=C(C(=O)NCc2cnn(C)c2)C(c2ccc(C)cc2Cl)N=C(Nc2nc3cnccc3o2)N1 (centres unmarked) [Compound 104, 4-(2-chloro-4-methylphenyl)-6-methyl-N-((1-methyl-1H-pyrazol-4-yl)methyl)-2-(oxazolo[4,5-c]pyridin-2-ylamino)-1,4-dihydropyrimidine-5-carboxamide]
Recombinant human GALK1; [3]
  IC50: 3.06 µM
Recombinant human GALK1; [4]
  IC50: 3.06 µM
Recombinant mouse GALK1; [5]
  IC50: 12.2 µM
Recombinant mouse GALK1; [6]
  IC50: 12.2 µM
PAMPA permeability
  Perm. (1 × 10^−6 cm/sec): 127.62 1 × 10^−6 cm/sec
[1]
  Sol.: >49 µg/mL
[2]
  Metab. Stabil. (m): 5.12 m

## CC1=C(C(=O)NCc2cnn(C)c2)C(c2ccc(C)cc2Cl)N=C(Nc2nc3ncccc3o2)N1 (centres unmarked) [Compound 105, 4-(2-chloro-4-methylphenyl)-6-methyl-N-((1-methyl-1H-pyrazol-4-yl)methyl)-2-(oxazolo[4,5-b]pyridin-2-ylamino)-1,4-dihydropyrimidine-5-carboxamide]
Recombinant human GALK1; [3]
  IC50: 15.3 µM
Recombinant human GALK1; [4]
  IC50: 15.3 µM
Recombinant mouse GALK1; Tables 2-15, 35 μM ATP, 100 μM galactose, 1 h, bracketed figure after some values is undefined and not reported
  mGALK IC50: inactive
Recombinant mouse GALK1; [7]
  mGALK (μM): in- active
PAMPA permeability
  Perm. (1 × 10^−6 cm/sec): 62.84 1 × 10^−6 cm/sec
[1]
  Sol.: >49 µg/mL
[2]
  Metab. Stabil. (m): 6.149 m
